Test results from patent publication US8377886B2, “Use of gamma secretase inhibitors and notch pathway inhibitors for treatment and prevention of renal disease” (Albert Einstein College of Medicine of Yeshiva University, priority 2007, dated 2013).

What was measured:
PAN treated rats = test: PAN induced nephrotic syndrome in rats; assay type: in vivo, rat
Procedure: Male Sprague Dawley rats (75-100 gr˜4 weeks old) were purchased from Charles Rivers. Animals were injected with puromycin aminonucleoside 20 mg/kg ip ×1. BDZ (dissolved in Methocell, Tween-80) was administered ip 500 μg/100 gr rat once a day. Animals were sacrificed on day 8 after PAN administration.
Phenotypic analysis. Albuminuria was determined using Mouse or Rat Albumin specific ELISA kits (Exocell and Bethyl Laboratories) and urine creatinine was determined using Creatinine companion (Exocell), following manufacturer's protocol.
Histologic analysis. Histologic analysis was performed on formalin fixed paraffin embedded kidney sections that was stained with Periodic-Acid-Schiff (PAS) or Gomori Trichrome. Slides were examined and pictures were taken with Nikon Eclipse TE300 microscope and SPOT Diagnostic CCD camera. Transmission electron microscopy was performed in the Analytical Imaging Facility at AECOM on glutaraldehyde fixed, epoxy embedded kidney samples stained with uranyl acetate and lead citrate. Samples were evaluated using JEOL 1200EX, electron microscope (AECOM, Analytical Imaging Facility).
Immunohistochemistry. Immunohistochemistry was performed on formalin fixed paraffin embedded kidney sections using the following primary antibodies Val^1744ICN1 (Abcam), ICN2 (Abeam). Staining was visualized using peroxidase conjugated anti mouse of anti rabbit Vectastain Elite kit and DAB (Vector Labs). Terminal d-UTP labeling (TUNEL) staining was performed using TUNEL kit (Chemicon) following manufacturer's instructions. For fluorescent labeling, 5 μm frozen sections were fixed in ice cold acetone, blocked with 10% horse serum and incubated with primary antibodies, WT-1 (Santa Cruz), nephrin (kind gift of Dr Lawrence Holzman, University of Michigan), synaptopodin and podocin (Sigma-Aldrich), p21 (Santa Cruz), and developed using FITC conjugated anti-mouse secondary antibody or Cy3 conjugated anti-rabbit antibodies (Jackson laboratory) and mounted with Fluoromount).
Glomerular isolation. Glomerular isolation was performed using serial sieving of 120, 100 and 71 μm diameter.
QRT-PCR. RNA was prepared from isolated glomeruli or from podocytes using RNAeasy Mini kit (Qiagen, Valencia). The quality was analyzed on agarose gels and the quantity was measured on NanoDrop. 1 ug RNA was reverse transcribed using cDNA Archival Kit (Applied Biosystems). QRT-PCR analysis was performed using ABI 7900HT-Sequence Detection System. SYBR Green Master Mix and 3-step standard cycling conditions and sequence specific primers for QRT-PCR analysis were used. Melting curve was examined to verify that a single product was amplified. For quantitative analysis all samples were normalized to ubiquitin C and HPGRT gene expression using the ΔΔCT value method.
It was examined whether the Notch pathway inhibition (with the use of a gamma-secretase inhibitor) could be used as a potential strategy for the treatment of albuminuric glomerular disease^31. Rats we treated with DBZ 500 μg/100 gr ip. daily stating 12 hrs prior to PAN injection. Animals were sacrificed on day 8 as the PAN treated rats appeared moribund and most of them had severe nephrotic syndrome (ascites and edema). DBZ treatment normalized the Notch pathway gene expression increase of PAN treated rats (FIG. 1e, FIG. 12a). […] Similarly, expression of p53 and p21 was lower in BDZ treated rats compared to PAN only injected animals (FIG. 110.

[1] = system: unilateral ureteral obstruction model; test: Unilateral ureteral obstruction model of renal tubulointerstitial fibrosis; assay type: in vivo, mouse; conditions: animals injected with GSI XX (DBZ)
Procedure: Increased Notch pathway gene expression was also observed in mouse models of chronic tubulointerstitial fibrosis (unilateral ureteral obstruction) and in patients with chronic renal disease and tubulointerstitial fibrosis. […] The role and regulation of Notch pathway genes were also examined in other models of tubulointerstitial fibrosis. […] To examine the role of Notch activation in this model, animals were injected with GSI XX (DBZ). DBZ reduced the expression of Notch target gene HeyL and reduced expression of pro-fibrotic genes collagen, fibronectin and alpha smooth muscle action.

Balb/c mice = test: Adriamycin (doxorubicin) induced nephrotic syndrome of mice; assay type: in vivo, mouse; conditions: male Balb/c mice, 12 days following 12 mg/kg doxorubicin (adriamycin); doxorubicin only 2659 μg/mg creatinine
Procedure: Adriamycin-induced nephrotic syndrome was induced in 8 weeks old male Balb/c mice (n=10/per each groups) via intravenous injection (to the tail vein) of 12 mg/kg adriamycin. Animals were sacrificed 12 days following the injection. All animal studies were approved by the Animal Care Committee at the Albert Einstein College of Medicine (AECOM). Animals were maintained under specific pathogen free conditions. Phenotypic analysis. Albuminuria was determined using Mouse or Rat Albumin specific ELISA kits (Exocell and Bethyl Laboratories) and urine creatinine was determined using Creatinine companion (Exocell), following manufacturer's protocol.

p53 = test: TGFβ induced phosphorylated p53 levels in podocytes, Western blot; assay type: cell-based, mouse; conditions: after 4 hrs of incubation with TGFβ
Procedure: (§1) Infection of Podocytes. Cultivation of conditionally immortalized mouse podocytes was performed as described^41. Briefly, cells were propagated in the undifferentiated state on type1 collagen at 33° C. in RPMI 1640 in the presence of 10% FBS (Hyclone) and 20 U/ml interferon γ (Sigma Chemical Co., St Louis, Mo.). To induce differentiation, cells were maintained at 37° C. without interferon for 10 days. Podocytes were infected with MIGR-ICN1-EGFP (kind gift of Dr Warren Pear, University of Pennsylvania) or pBMN-EGFP (Orbigen) retrovirus. Briefly vectors were transfected into Phoenix Eco packaging cells (Orbigen) and supernatant was harvested 60-72 hrs after transfection. Podocytes were infected with virus containing supernatant (3-4 times, every 6 hours) in the presence of polybrene […]. After 24 hrs of infection, the medium was changed and cells were either treated with tamoxifen to induce ICN1 expression or left untreated. Infection efficiency was estimated under fluorescence microscope by the presence of GFP positive cells as it ranged from 70-80%.
(§2) Western Blotting. Cells were lysed in RIPA buffer in the presence of protease and phosphatase inhibitors; equal amount (30 μg) of protein was loaded on 10% SDS gels. Gels were transferred to PVDF membranes (Bio-Rad), blocked in 5% milk and incubated with the primary antibody (1:1,000 dilution) overnight at 4° C. in 1% milk. […]

FA-treated mice = test: Murine folic acid (FA)-induced nephrotoxicity model; assay type: in vivo, mouse; conditions: FA mice treated for 1 week with DBZ
Procedure: Experiments were conducted using the murine folic acid (FA)-induced nephrotoxicity model, which is characterized by acute tubular injury followed by both tubular regeneration and chronic changes such as patchy interstitial fibrosis. Strong upregulation was found for mRNA levels of Notch 1-4, the ligands Jagged 1 and 2, delta like-1 and -4, and the downstream target genes Hes1, Hey1, and HeyL in total kidney homogenates 1 day after FA injection, which remained increased up to 1 week.
To further investigate the role of Notch in FA-induced renal injury, mice were treated for 1 week with the gamma-secretase inhibitor (GSI) dibenzazepine (DBZ) that blocks activation of the Notch pathway by interfering with Notch cleavage. […] In control kidneys, large numbers of interstitial fibroblasts and significant tubulointerstitial fibrosis were observed indicating a misdirected renal regeneration.

[2] = system: Smad3 and Akt phosphorylation; test: TGFβ induced Smad3 and Akt phosphorylation in podocytes, Western blot; assay type: cell-based, mouse; conditions: 5 ng/ml TGFβ; GSI XX 1 μM
Procedure: as §1, §2

ICN1 = test: TGFβ induced increase of ICN1 levels in cultured podocytes, Western blot; assay type: cell-based, mouse; conditions: 5 ng/ml TGFβ; 100 nM GSI XX; 10 μM SB203580, PD or LY; GSI IX and GSI X data not shown
Procedure: as §1
Western Blotting. Cells were lysed in RIPA buffer in the presence of protease and phosphatase inhibitors; equal amount (30 μg) of protein was loaded on 10% SDS gels. Gels were transferred to PVDF membranes (Bio-Rad), blocked in 5% milk and incubated with the primary antibody (1:1,000 dilution) overnight at 4° C. in 1% milk. Membranes were incubated with HRP conjugated anti-mouse or anti-rabbit secondary antibody (Jackson Immunologicals) for 1 hr at room temperature and developed using ECL method (Pierce). The following primary antibodies were used in this study; phospho-p38 (#4631), total p38 (#9217), phospho-AKT (#4051), total AKT (#9272), cleaved PARP, cleaved caspase3, phospho-53 were from Cell Signaling, phospho-JNK, p53, p21 were from Santa Cruz Val^1744ICN1 and β-actin antibody was purchased from Abcam (Cambridge, Mass.).

podocytes [3] = test: TGFβ induced podocyte apoptosis, annexinV positive cell number; assay type: cell-based, mouse; conditions: 24 hrs following TGFβ; pre-incubation GSIXX 1 μM or pifithrinα 15 μM
Procedure: as §1
AnnexinV staining. AnnexinV staining was performed using AnnexinV-Alexa 568 staining kit (Roche). […] Cells were washed, and fluorescent labeled cells were counted. Total number of cells were counted by DAPI counterstain. Nuclear condensation was assessed by DAPI staining.

podocytes [4] = test: ICN1 induced podocyte apoptosis, AnnexinV staining; assay type: cell-based, mouse; conditions: for ICN1 induced increase in annexinV positive cell number: tamoxifen 1.5 μM, counted 24 hrs after induction, GSIXX 4 μM, pifithrin-alpha 15 μM
Procedure: as §1
AnnexinV staining. AnnexinV staining was performed using AnnexinV-Alexa 568 staining kit (Roche). Cells were cultured in 24 well plates, washed and incubated with AnnexinV-Alexa 568 in incubation buffer according to manufacturer's instruction. Cells were washed, and fluorescent labeled cells were counted. Total number of cells were counted by DAPI counterstain. Nuclear condensation was assessed by DAPI staining.

p21 = test: TGFβ induced p21 protein expression in podocytes, Western blot; assay type: cell-based, mouse; conditions: after 24 hrs TGFβ
Procedure: as §1, §2

[5] = PAN rats, DBZ 500 μg/100 gr ip daily

For C[C@H](NC(=O)Cc1cc(F)cc(F)c1)C(=O)N[C@@H]1C(=O)N(C)c2ccccc2-c2ccccc21 [DBZ, (S,S)-2-[2-(3,5-Difluorophenyl)acetylamino]-N-(5-methyl-6-oxo-6,7-dihydro-5H-dibenzo[b,d]azepin-7-yl)propionamide], the “Notch pathway gene expression increase of PAN treated rats” value (PAN treated rats; DBZ 500 μg/100 gr ip daily from 12 hrs prior to PAN, QRT-PCR) was “normalized”, the “albuminuria (albumin/creatinine ratio)” value (PAN treated rats; PAN rats, 500 μg/100 gr ip daily, compared to PAN only, after 6 days) was “significantly less” and the “foot process effacement (EM analysis)” value (PAN treated rats; [5]) was “almost fully abrogated”. The “podocyte apoptosis (TUNEL staining)” value (PAN treated rats; [5]) was “fully prevented”, the “decrease in nephrin and podocin levels (mRNA and protein)” value (PAN treated rats; PAN rats, DBZ 500 μg/100 gr ip daily, day 8) was “protected” and the “expression of p53 and p21” value (PAN treated rats; PAN rats, whole kidney lysates QRT-PCR, compared to PAN only) was “lower”. For the same compound, the “expression of Notch target gene HeyL” value [1] was “reduced”, the “expression of pro-fibrotic genes collagen, fibronectin and alpha smooth muscle action” value [1] was “reduced” and the “tubulointerstitial fibrosis (evaluated on PAS staining)” value [1] was “reduced”. The albuminuria (Balb/c mice) was 800 μg/mg creatinine, the “TGFβ induced increase of phosphorylated p53 levels” value (p53) was “fully sensitive” and the “FA-induced upregulation of fibrotic remodeling genes (TGF-β, fibronectin, MMP-2 and 9)” value (FA-treated mice) was “greatly reduced”. The “increase in serum creatinine” value (FA-treated mice) was “did not affect”, the “rate of tubular apoptosis” value (FA-treated mice) was “did not affect” and the “rise in HeyL expression” value (FA-treated mice) was “completely blunted”. The tubular damage scores (FA-treated mice) was “did not affect”, the “TGFβ induced Smad3 and Akt phosphorylation” value [2] was “did not interfere” and the “TGFβ induced increase of ICN1 levels” value (ICN1) was “fully sensitive”. For the same compound, the “TGFβ induced increase in annexinV positive cell number” value (podocytes [3]) was “prevented”, the “ICN1 induced increase in annexinV positive cell number” value (“ICN1 induced increase” below) (podocytes [4]; listed as GSI XX) was “did not alter” and the “ICN1 induced increase” value (podocytes [4]; listed as GSIXX) was “did not affect”.

In the case of C[C@H](NC(=O)Cc1cc(F)cc(F)c1)C(=O)N[C@H](C(=O)OC(C)(C)C)c1ccccc1 [GSI IX, N—[N-(3,5-Difluorophenacetyl-L-alanyl)]-S-phenylglycine t-Butyl Ester], the “TGFβ induced increase of ICN1 levels” value (ICN1) is reported as “fully sensitive”.

CC(C)C[C@H](NC(=O)[C@H](Cc1ccccc1)C[C@@H](O)[C@H](Cc1ccccc1)NC(=O)OC(C)(C)C)C(=O)N[C@@H](Cc1ccccc1)C(N)=O [GSI X, {1S-Benzyl-4R-[1-(1S-carbamoyl-2-phenethylcarbamoyl)-1S-3-methylbutylcarbamoyl]-2R-hydroxy-5-phenylpentyl}carbamic Acid tert-butyl Ester] was tested, and the “TGFβ induced increase of ICN1 levels” value (ICN1) was “fully sensitive”.

COc1cccc(-c2cc(=O)c3ccccc3o2)c1N [PD98059] was tested, and the “TGFβ induced increase of ICN1 levels” value (ICN1) was “not sensitive”.

In the case of C[S+]([O-])c1ccc(-c2nc(-c3ccncc3)c(-c3ccc(F)cc3)[nH]2)cc1 (stereo not drawn) [SB203580], the “TGFβ induced increase of ICN1 levels” value (ICN1) is reported as “not sensitive” and the “ICN1 induced increase” value (podocytes [4]) is reported as “did not alter”.

In the case of Cc1ccc(C(=O)Cn2c3c(sc2=N)CCCC3)cc1 [pifithrin alpha], the “TGFβ induced increase in p21 protein expression” value (p21) is reported as “blocked”, the “TGFβ induced increase in annexinV positive cell number” value (podocytes [3]) is reported as “prevented” and the “ICN1 induced increase” value (podocytes [4]) is reported as “decreased”.

Z-vad was tested, and the “ICN1 induced apoptosis (AnnexinV/GFP positive cells)” value (podocytes [4]; podocytes with tamoxifen-induced ICN1, pretreatment with Z-vad (10 μM) or Z-LEHD (10 μM)) was “prevented”.
